Measured values reported in ChEMBL document CHEMBL5154677, “On-Demand Activation of a Bioorthogonal Prodrug of SN-38 with Fast Reaction Kinetics and High Releasing Efficiency In Vivo” (J Med Chem, 2022).
In brackets after ≈: the same amount, converted by molar mass.

What was measured:
[1] = Dissociation constant , pKa of the compound; assay type: physicochemical
[2] = Solubility of compound in PBS; assay type: physicochemical; settings: buffer
[3] = Stability of prodrug in PBS at pH 7.4 assessed as retention time of drug released measured after 24 hrs by LC-MS analysis; assay type: physicochemical; settings: buffer, pH 7.4, 24 h
[4] = Stability of the prodrug in PBS at pH 6.5 assessed as suppression of hydrolytic opening of the lactone ring by LC-MS analysis; assay type: physicochemical; settings: buffer
[5] = Drug uptake in human A549 cells assessed as drug internalization by measuring blue fluorescence at 100 uM incubated for 1 hr by DAPI staining based confocal fluorescence microscopy; assay type: ADME, cell-based; settings: a549, 1 h
[6] = Drug uptake in human A549 cells assessed as drug internalization by measuring increase in fluorescence intensity at 100 uM incubated for 1 hr by FITC staining based confocal fluorescence microscopy; assay type: ADME, cell-based; settings: a549, 1 h
[7] = Prodrug activation in human A549 cells assessed as SN-38 release by measuring increase in blue fluorescence intensity at 100 uM in presence of bis(pinacolato)diboron incubated for 1 hr by DAPI staining based confocal fluorescence microscopy; assay type: cell-based; settings: a549, 1 h
[8] = Prodrug activation in human A549 cells assessed as SN-38 release by measuring increase in yellow fluorescence at 100 uM in presence of bis(pinacolato)diboron incubated for 1 hr by FITC staining based confocal fluorescence microscopy; assay type: cell-based; settings: a549, 1 h
A549 [9] = assay: Cytotoxicity against human A549 cells assessed as reduction in cell viability measured after 72 hrs by CCK-8 assay; assay type: functional, cell-based; settings: A549, 72 h
A549 [10] = assay: Cytotoxicity against human A549 cells assessed as reduction in cell viability incubated for 72 hrs in presence of bis(pinacolato)diboron by CCK-8 assay; assay type: functional, cell-based; settings: A549, 72 h
[11] = Prodrug activation in human A549 cells assessed as increase in yellow fluorescence at 100 nM incubated for 72 to 120 hrs using FITC staining based laser confocal fluorescence microscopy; assay type: cell-based; settings: a549, 0.1 µM, time 72-120 hrs
[12] = Prodrug activation in human A549 cells assessed as reduction in blue fluorescence at 100 nM incubated for 72 to 120 hrs using DAPI staining based laser confocal fluorescence microscopy; assay type: cell-based; settings: a549, 0.1 µM, time 72-120 hrs
A549 [13] = assay: Cytotoxicity against human A549 cells assessed as cell growth inhibition incubated for 120 hrs by CCK-8 assay; assay type: functional, cell-based; settings: A549, 120 h
A549 [14] = assay: Cytotoxicity against human A549 cells assessed as cell growth inhibition incubated for 120 hrs in presence of bis(pinacolato)diboron by CCK-8 assay; assay type: functional, cell-based; settings: A549, 120 h
[15] = Cytotoxicity against HEK293T cells assessed as reduction in cell viability measured after 72 hrs by CCK-8 assay; assay type: toxicity, cell-based, HEK-293T; settings: human
[16] = Prodrug activation in human A549 cells xenografted in nude mouse assessed as drug release by measuring increase in yellow fluorescence at 5 mg/kg, iv in presence of bis(pinacolato)diboron administered every 5 mins for 1 hr by FITC staining based confocal laser scanning microscopy; assay type: organism-based; settings: in vivo
[17] = Prodrug activation in human A549 cells xenografted in nude mouse assessed as drug release by measuring reduction in blue fluorescence at 5 mg/kg, iv in presence of bis(pinacolato)diboron administered every 5 mins for 1 hr by DAPI staining based confocal laser scanning microscopy; assay type: organism-based; settings: in vivo
[18] = Prodrug activation in human A549 cells xenografted in nude mouse assessed as drug release by measuring increase in yellow fluorescence at 5 mg/kg, iv administered every 5 mins for 1 hr by FITC staining based confocal laser scanning microscopy; assay type: organism-based; settings: in vivo
[19] = Stability of prodrug in PBS at pH 7.4 assessed as 7-hydroxylcoumarin formation at 1 uM measured after 24 hrs by HPLC analysis; assay type: physicochemical; settings: buffer, pH 7.4, 24 h

SMILES: Nc1ccc(CO)cc1
- pKa [1]: 9.68

SMILES: CCc1c2c(nc3ccc(OCc4ccc([N+](C)(C)[O-])cc4)cc13)-c1cc3c(c(=O)n1C2)COC(=O)[C@]3(O)CC
- solubility [2]: 3.2736 µM (≈ 1.77 µg/mL)
- Retention_time [3]: 1.8 min
- Stability [4]: Stable
- Drug uptake [5]: Active
- Drug uptake [6]: Active
- Drug metabolism [7]: Metabolite_Detected
- Drug metabolism [8]: Metabolite_Detected
- IC50 (A549 [9]): 128 nM
- IC50 (A549 [10]): 29.6 nM
- Drug metabolism [11]: Metabolite_Detected
- Drug metabolism [12]: Metabolite_Detected
- IC50 (A549 [13]): 17.1 nM
- IC50 (A549 [14]): 9.2 nM
- IC50 at 72 h [15]: 66.3 nM
- Drug metabolism [16]: Metabolite_Detected
- Drug metabolism [17]: Metabolite_Detected
- Drug metabolism [18]: Metabolite_Notdetected

SMILES: CN(C)c1ccc(CO)cc1
- IC50 at 72 h [15]: > 100000 nM

SMILES: C[N+](C)([O-])c1ccc(COc2ccc3ccc(=O)oc3c2)cc1
- Stability [19]: Stable

SMILES: CCc1c2c(nc3ccc(O)cc13)-c1cc3c(c(=O)n1C2)COC(=O)[C@]3(O)CC [7-ETHYL-10-HYDROXYCAMPTOTHECIN]
- solubility [2]: 0.01101 µM (≈ 0.00432 µg/mL)
- IC50 (A549 [9]): 11.9 nM
- IC50 (A549 [13]): 3.8 nM
- IC50 at 72 h [15]: 14.2 nM
- pKa [1]: 9.2
